Laboratory results as given in patent publication US6815439B2, “Substituted aza-oxindole derivatives” (SmithKline Beecham Corporation, priority 1999, dated 2004).

Legend:
Format in all cases: biochemical
[1] = target: T1, c-fms (Homo sapiens, UniProt P07333); test: c-fms protein kinase assay; details: kinase inhibition, Table 3
T1 construct: The c-fms intracellular domain was expressed from a baculovirus expression system; GST (N); made in house
T1 sequence (P07333 539-972 limits assumed): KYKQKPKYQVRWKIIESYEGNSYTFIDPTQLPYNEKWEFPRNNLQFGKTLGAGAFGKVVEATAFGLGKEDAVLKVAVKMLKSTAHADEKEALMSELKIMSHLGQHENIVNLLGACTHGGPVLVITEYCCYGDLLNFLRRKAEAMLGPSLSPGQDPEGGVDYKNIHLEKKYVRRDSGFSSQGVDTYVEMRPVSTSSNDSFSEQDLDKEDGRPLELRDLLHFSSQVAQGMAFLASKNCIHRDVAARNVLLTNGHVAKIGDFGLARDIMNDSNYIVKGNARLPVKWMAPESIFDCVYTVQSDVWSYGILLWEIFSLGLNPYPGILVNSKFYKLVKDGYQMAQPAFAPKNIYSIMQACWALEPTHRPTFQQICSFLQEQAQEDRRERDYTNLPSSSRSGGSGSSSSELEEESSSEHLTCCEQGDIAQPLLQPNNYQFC
Protocol: c-fms protein kinase assays utilized the peptide substrate, biotin-[…]-NH2 as the phosphoryl group acceptor. The c-fms intracellular domain was expressed from a baculovirus expression system, as an amino-terminal GST fusion protein, and purified to homogeneity using Glutathione agarose from Sigma Chemical Co. Maximum activation of the enzyme was achieved by preactivation at room temperature for 120 min in the presence of 100 μM ATP and 15 mM MgCl2, This enzyme stock was diluted to 150 nM prior to using in the assay. Typically assays were performed in white, opaque, 96-well plates in a 45 ul assay volume including 15 ul 6% DMSO, with or without compounds, 15 ul of the preactivated, diluted enzyme, and 15 ul of a substrate mixture. Reactions contained 50 mM HEPES, pH 7.5, 1.7 μM ATP, 15 mM MgCl2, 3 μM peptide, 2.5 mM DTT, 50 mM NaCl and 0.15 uCi/assay [□□^32P]ATP. The controls were reactions in the presence (negative controls) or absence (positive controls) of 50 mM EDTA. Reactions were allowed to proceed for 90 min at room temperature. The reaction products were quantified using Scintillation Proximity technolgy. The reactions were quenched by the addition of 200 ul of a solution containing 0.3 mg streptavidin SPA beads from Amersham, 50 mM EDTA, 0.1% TX-100, 50 uM ATP, in PBS, pH7.2 (phosphate buffered solution). Plates were sealed and counted in a Packard Topcount scintillation counter. IC50 values were obtained by fitting raw data to the equation y=Vmax*(1−(x/(k+x))).

[2] = target: T2, VEGFR-2 (Homo sapiens, UniProt P35968); test: VEGFR-2 kinase assay; details: kinase inhibition, Table 3; read-out: VEGFR2 (IC50)
T2 construct: The kinase domain of the enzyme was purified to homogeneity from a baculovirus expression system; made in house
Protocol: The peptide substrate used in the VEGFR-2 assay was biotin-aminohexyl-[…]-NH2. The kinase domain of the enzyme was purified to homogeneity from a baculovirus expression system. The enzyme was preactivated on ice for 15 min in the presence of 100 μM ATP and 20 mM MgCl2, and stored at −80° C. until needed for assay. The activated enzyme was diluted to 0.4 nM into a 60 μl reaction containing 100 mM HEPES, pH 7.5, 5 μM ATP, 10 mM MgCl2, 5 μM peptide, 0.1 mM DTT, 0.05 mg/ml BSA, and an inhibitor at varying concentrations. The controls were reactions in the presence (negative controls) or absence (positive controls) of 50 mM EDTA. Reactions were incubated for 30 min at room temperature, and then quenched by the addition of EDTA to 60 mM in 210 μl. The quenched samples (190 μl) were transferred to a neutravidin-coated plate (Pierce) and incubated at room temperature for 40 min to allow biotinylated peptide to bind to the neutravidin. The unbound components of the reaction were removed by washing with a plate washer, then 200 μl HRP-PY20 anti-phosphotyrosine antibody conjugate was added to each well. After incubation for 40 min, the plate was washed to remove any unbound anitbody. A HRP substrate, K-blue (Neogen) was added and the reaction was quenched with Red Stop (Neogen) after 20 min. The absorbance of the wells was read at A650 in a plate reader. IC50 values were obtained by fitting raw data to A650=VMAX*(1−[I]/IC50+[I])))+b, where b is background.

[3] = target: CDK2 (Homo sapiens, UniProt P24941); test: CDK2 substrate phosphorylation assay; details: kinase inhibition, Table 3
Protocol: Cyclin dependent protein kinase assays utilized the peptides Biotin-aminohexyl-[…] and Biotin-aminohexyl-[…]-NH2 as phosphoryl group acceptors. CDK2 was expressed utilizing a baculovirus expression system and was partially purified to comprise 20-80% of total protein, with no detectable competing reactions present. Typically, assays were performed by incubating enzyme (0.2-10 nM), with and without inhibitor, one of the two peptide substrates ([…]), [γ-^32P]ATP ([…]), and 10-20 mM Mg^2+ for periods of time generally within the range 10-120 min. Reactions were terminated with 0.2-2 volumes of either 20% acetic acid or 50-100 mM EDTA buffered to pH 7 (substrate consumption <20%). The buffer employed in enzyme assays was either 30 mM HEPES 7.4 containing 0.15 M NaCl and 5% DMSO, the buffer 50 mM MOPS 7.0 containing 0.15 M NaCl and 5% DMSO, or the buffer 100 mM HEPES pH 7.5 containing 0.1 mg/mL BSA and 5% DMSO. Inhibitors were diluted in 100% DMSO prior to addition into the assay. Detection of peptide phosphorylation was accomplished by scintillation counting following either collection of peptide onto phosphocellulose filters (for reactions stopped with acetic acid), collection of peptide in wells of 96 well plates coated with Streptavidin (Pierce) (reactions were stopped with EDTA), or addition of Avidin coated Scintillant impregnated beads (Scintillation Proximity Assays from Amersham; reactions were stopped with EDTA).

T2 sequence (P35968 834-1162 limits assumed, species assumed): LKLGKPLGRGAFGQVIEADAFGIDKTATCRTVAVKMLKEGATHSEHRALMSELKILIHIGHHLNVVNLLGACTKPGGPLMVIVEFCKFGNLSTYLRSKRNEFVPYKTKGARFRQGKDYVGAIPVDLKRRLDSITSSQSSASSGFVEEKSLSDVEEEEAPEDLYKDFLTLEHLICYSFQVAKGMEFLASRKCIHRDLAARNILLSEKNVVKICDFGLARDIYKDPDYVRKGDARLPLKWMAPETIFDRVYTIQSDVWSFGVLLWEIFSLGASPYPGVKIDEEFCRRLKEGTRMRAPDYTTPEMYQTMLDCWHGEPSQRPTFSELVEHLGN

SMILES | IC50 [1] [nM] | IC50 [2] [nM] | IC50 [3] [nM]
O=C1Nc2ncc(Br)cc2C1=CNc1ccc2cn[nH]c2c1 [Example 18, 5-Bromo-3-[(1H-indazol-6-ylamino)methylidene]-1,3-dihydro-2H-pyrrolo[2,3-b]pyridin-2-one] | 1000 to 10000 | 100 to 1000 | 10 to 100
O=C1Nc2nc(Cl)ccc2C1=CNc1ccc2cn[nH]c2c1 [Example 21, 6-Chloro-3-[(1H-indazol-6-ylamino)methylidene]-1,3-dihydro-2H-pyrrolo[2,3-b]pyridin-2-one] | 1000 to 10000 | 100 to 1000 | 100 to 1000
